Test results as given in patent publication US20030212061A1, “Aza-thioxanthenones with antitumor activity” (priority 2002, published 2003).

tested on: HeLa S-3 cells; test: Inhibition of cell growth (GI50), sulforhodamine B staining; type: cell-based; details: GI50 of carbocyclic congener versus GI50 of aza-analog, HeLa cells
Experimental: Growth inhibition (GI50) values were measured with HeLa S-3 cells selected for growth on plastic. The procedure was based on the protocol of Skehan et al. (Skehan, P., et al., J. Natl. Cancer Inst., 82:1107-1112 (1990), which is hereby incorporated by reference) HeLa cells were plated at 2×10^4 cells/well in 96 well plates. One day later, a control plate was fixed by addition of TCA to 5%. After five rinses with tap water, the plate was air dried and stored at 4° C. Test compounds were added to the remaining plates at 10-fold dilutions between 0.01 and 100 μM. Two days later, all plates were fixed as described above. Cells were then stained by the addition of 100 μl per well of 0.4% sulforhodamine B (SRB) in 1% acetic acid for 30 min at 4° C. Wells were then quickly rinsed 5×with acetic acid (1%) and allowed to air dry. The SRB was then solubilized by the addition of 100 μl per well of unbuffered 10 mM Tris base. Dye was quantified by measuring absorbance at 490 nm on a Molecular Devices kinetic microplate reader. Growth at each inhibitor concentration relative to the untreated control was calculated according to the following equation: percent growth=100×(T−To)/(C−To), where T was the average optical density (OD) of the test wells after 2 days of treatment, To was the average OD of the wells in the control plate on day 0 and C was the average OD of untreated wells. Plots of percent growth versus inhibitor concentration were used to determine the GI50.
The data below shown in Table 4 summarizes the in vitro growth inhibition constants (GI50) of HeLa Cells for the compounds of the current invention.
GI50 is the concentration of the compound that causes a 50 percent inhibition of tumor cell growth

Row | Compound | Folds Improvements
1 | CCN(CC)CCNc1ccc(CNS(C)(=O)=O)c2sc3ccncc3c(=O)c12 [drawing 106] | 10
2 | CCN(CC)CCNc1ccc(CNS(C)(=O)=O)c2sc3ccncc3c(=O)c12 [drawing 104] | 7.5
3 | CCN(CC)CCNc1cccc2sc3ccncc3c(=O)c12 [drawing 98] | 3.5
4 | CCN(CC)CCNc1ccc(CNC=O)c2sc3ccncc3c(=O)c12 [drawing 100] | 3
5 | CCN(CC)CCNc1ccc(CN)c2sc3ccncc3c(=O)c12 [drawing 102] | 1

same assay, conditions: HeLa cells, Table 5, aza-analog; read-out: GI50 (Aza-Analog)

Row | Compound | GI50 [µM]
6 | CCN(CC)CCNc1ccc(CNS(C)(=O)=O)c2sc3ccncc3c(=O)c12 [drawing 106] | 0.3

same assay, conditions: Homo sapiens, HeLa S3, 48 h, HeLa cells, 2 days of treatment, Table 4; read-out: GI50 Activity

Row | Compound | GI50 [µM]
7 | CCN(CC)CCNc1ccc(CNC=O)c2sc3ccncc3c(=O)c12 [drawing 82] | 1
8 | CCN(CC)CCNc1ccc(CN)c2sc3ccccc3c(=O)c12 [drawing 77] | 0.6
9 | CCN(CC)CCNc1cccc2sc3ccccc3c(=O)c12 [drawing 74] | > 10
10 | CCN(CC)CCn1nc2c3c(c(C=O)ccc31)Sc1ccccc1-2 | 2
11 | CCN(CC)CCn1nc2c3c(c(CN)ccc31)Sc1ccncc1-2 | 0.2
12 | CCN(CC)CCn1nc2c3c(c(CNC=O)ccc31)Sc1ccncc1-2 | 0.2
13 | CCN(CC)CCn1nc2c3c(c(CNC(=O)OC)ccc31)Sc1ccncc1-2 | 0.1
14 | CCN(CC)CCn1nc2c3c(cccc31)Sc1ccncc1-2 | 1
15 | CCN(CC)CCN(N)c1ccc2c(=O)c3cnccc3sc2c1 | > 10
16 | CCN(CC)CCNc1ccc(C=O)c2sc3ccccc3c(=O)c12 | 2
17 | CCN(CC)CCNc1ccc(CNS(C)(=O)=O)c2sc3ccccc3c(=O)c12 [drawing 78] | 3
18 | CCN(CC)CCNc1ccc(CN)c2sc3ccncc3c(=O)c12 [drawing 83] | 0.7
19 | CCN(CC)CCn1nc2c3c(c(CNC=O)ccc31)Sc1ccccc1-2 | 1
20 | CCN(CC)CCNc1ccc(CNS(C)(=O)=O)c2sc3ccncc3c(=O)c12 [drawing 84] | 0.4
21 | CCN(CC)CCN(C)c1ccc2c(=O)c3cnccc3sc2c1 | > 10
22 | CCN(CC)CCNc1ccc(CNC(=O)OC)c2sc3ccccc3c(=O)c12 [drawing 79] | 3
23 | CCN(CC)CCn1nc2c3c(cccc31)Sc1ccccc1-2 | 9
24 | CCN(CC)CCn1nc2c3c(c(CN)ccc31)Sc1ccccc1-2 | 1
25 | CCN(CC)CCNc1ccc(CNC(=O)OC)c2sc3ccncc3c(=O)c12 | 0.3
26 | CCN(CC)CCNc1cccc2sc3ccncc3c(=O)c12 [drawing 81] | 3
27 | CCN(CC)CCn1nc2c3c(c(CNS(C)(=O)=O)ccc31)Sc1ccccc1-2 | 0.9
28 | CCN(CC)CCNc1ccc(CNC=O)c2sc3ccccc3c(=O)c12 [drawing 76] | 3
29 | CCN(CC)CCn1nc2c3c(c(CNC(=O)OC)ccc31)Sc1ccccc1-2 | 3

same assay, conditions: Homo sapiens, HeLa S3, HeLa cells, Table 5, aza-analog; read-out: GI50 (Aza-Analog)

Row | Compound | GI50 [µM]
30 | CCN(CC)CCNc1ccc(CNS(C)(=O)=O)c2sc3ccncc3c(=O)c12 [drawing 104] | 0.4
31 | CCN(CC)CCNc1cccc2sc3ccncc3c(=O)c12 [drawing 98] | 3
32 | CCN(CC)CCNc1ccc(CNC=O)c2sc3ccncc3c(=O)c12 [drawing 100] | 1
33 | CCN(CC)CCNc1ccc(CN)c2sc3ccncc3c(=O)c12 [drawing 102] | 0.7

same assay, conditions: Homo sapiens, HeLa S3, HeLa cells, Table 5, carbocyclic congener; read-out: GI50 (Carbocic Congener)

Row | Compound | GI50 [µM]
34 | CCN(CC)CCNc1ccc(CNC=O)c2sc3ccccc3c(=O)c12 [drawing 99, reference compound] | 3
35 | CCN(CC)CCNc1cccc2sc3ccccc3c(=O)c12 [drawing 97, reference compound] | > 10
36 | CCN(CC)CCNc1ccc(CNS(C)(=O)=O)c2sc3ccccc3c(=O)c12 [drawing 103, reference compound] | 3
37 | CCN(CC)CCNc1ccc(CN)c2sc3ccccc3c(=O)c12 [drawing 101, reference compound] | 0.6
38 | CCN(CC)CCNc1ccc(CNC(=O)OC)c2sc3ccccc3c(=O)c12 [drawing 105, reference compound] | 3

tested on: murine leukemia (L1210) and P388 leukemia cells; test: not given; details: in vitro L1210 and in vivo P388; cited from earlier work

Row | Compound | assessment as a potential antitumor agent
39 | CN(C)CCNC(=O)c1cccc2c(=O)c3ccccc3sc12.Cl [N-[2-(dimethylamino)ethyl-]-9-oxo-9H-thioxanthene-4-carboxamide monohydrochloride] | unlikely to worth pursuing
